One may read the AC50 as the concentration at which the activity in the assay is half-maximal. The term IC50 denotes the concentration that gives 50% inhibition.

The structures appear in SMILES notation. The source made the active and inactive calls. Rule as the data show it, for most assays here: actives have a measured EC50 and inactives only a lower limit. Bounds are passed on as bounds.

These results are taken from ChEMBL document CHEMBL1201862, “PubChem BioAssay data set” (2004).

Assay [1] is described as follows: Luminescence Cell-Based Dose Confirmation HTS to Identify Activators of 5'UTR Stem-Loop Driven Alpha-Synuclein mRNA Translation in H4 Neuroglioblastoma Cells. [Related pubchem assays: 1829 (Project Summary), 1814 (Primary HTS)]. Type of assay: functional.
Assay [2] can be described thus: Luminescence Cell-Based Dose Response HTS to Identify Activators of Luciferase Translation or Activity in H4 […] Cells. [Related pubchem assays: 1829 (Project Summary), 1814 (Primary HTS)]. Type of assay: functional.
A further assay relates to H4. Kind of assay: Luminescence Cell-Based Dose Response HTS to Identify Activators of 5'UTR Stem-Loop Driven Prion Protein mRNA Translation in H4 Neuroglioblastoma Cells. [Related pubchem assays: 1829 (Project Summary), 1814 (Primary HTS)]. It is filed as functional. The settings on record: Homo sapiens.
Assay [3] addresses FAD-linked sulfhydryl oxidase ALR (Homo sapiens, UniProt P55789). Nature of the assay: inhibitors of human ALR sulfhydryl oxidase, dose response, biochemical, H2O2 detection, luminescence, cherry-pick (AID 493248).
Assay [4] can be described thus: inhibitors of intracellular T. cruzi replication, confirmation, NIH3T3 host cells, beta-gal luminescence (AID 2044).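 Also: intracellular parasites grown in NIH/3T3 mouse fibroblasts as host cells; luminescent beta-galactosidase reporter signal from transgenic T. cruzi replicating inside host cells; inhibitors lower the luminescence signal.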 It is filed as functional, cell-based.
Assay [5] in a line: cytotoxicity toward NIH3T3 fibroblasts, dose response, counter-screen, cell-based, ATP luminescence, mouse fibroblasts (AID 2010).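 Also: cells exposed to compound for about 90 hours before reading.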 Type of assay: functional. On the technique in general: The purpose of a counterscreen is to sort out artefacts and off-target activity.
Assay [6] deals with T1, Corticotropin-releasing factor receptor 2/Corticotropin-releasing factor-binding protein (Homo sapiens, UniProt P24387+Q13324).
T1 sequence (Q13324 whole entry): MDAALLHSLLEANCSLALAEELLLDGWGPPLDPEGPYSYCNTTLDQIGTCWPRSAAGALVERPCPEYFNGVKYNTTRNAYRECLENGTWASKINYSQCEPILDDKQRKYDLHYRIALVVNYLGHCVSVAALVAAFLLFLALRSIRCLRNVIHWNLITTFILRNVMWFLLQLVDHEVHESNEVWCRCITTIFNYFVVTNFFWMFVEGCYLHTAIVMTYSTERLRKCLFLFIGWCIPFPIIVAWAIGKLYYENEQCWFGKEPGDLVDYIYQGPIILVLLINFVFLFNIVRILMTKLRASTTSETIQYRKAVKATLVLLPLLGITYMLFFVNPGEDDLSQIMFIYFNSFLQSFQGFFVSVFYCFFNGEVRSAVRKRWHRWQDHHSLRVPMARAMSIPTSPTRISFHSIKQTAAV
T1 sequence (P24387 whole entry): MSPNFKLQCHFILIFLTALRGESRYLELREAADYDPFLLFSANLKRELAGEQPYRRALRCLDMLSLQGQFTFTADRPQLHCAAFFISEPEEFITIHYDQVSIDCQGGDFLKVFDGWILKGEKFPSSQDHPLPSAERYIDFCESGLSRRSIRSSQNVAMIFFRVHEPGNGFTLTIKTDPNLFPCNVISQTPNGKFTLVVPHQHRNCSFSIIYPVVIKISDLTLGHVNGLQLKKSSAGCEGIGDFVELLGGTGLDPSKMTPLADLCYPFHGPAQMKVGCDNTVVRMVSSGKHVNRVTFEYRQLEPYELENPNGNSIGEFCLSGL
Nature of the assay: activators of CRF receptor 2 with binding protein – uHTS hits, confirmation (AID 602473). The settings on record: read-out: EC50_Mean. Type of assay: functional.

The next assay deals with Cytochrome P450 2D6 (Homo sapiens, UniProt P10635).
Cytochrome P450 2D6, sequence (P10635 whole entry): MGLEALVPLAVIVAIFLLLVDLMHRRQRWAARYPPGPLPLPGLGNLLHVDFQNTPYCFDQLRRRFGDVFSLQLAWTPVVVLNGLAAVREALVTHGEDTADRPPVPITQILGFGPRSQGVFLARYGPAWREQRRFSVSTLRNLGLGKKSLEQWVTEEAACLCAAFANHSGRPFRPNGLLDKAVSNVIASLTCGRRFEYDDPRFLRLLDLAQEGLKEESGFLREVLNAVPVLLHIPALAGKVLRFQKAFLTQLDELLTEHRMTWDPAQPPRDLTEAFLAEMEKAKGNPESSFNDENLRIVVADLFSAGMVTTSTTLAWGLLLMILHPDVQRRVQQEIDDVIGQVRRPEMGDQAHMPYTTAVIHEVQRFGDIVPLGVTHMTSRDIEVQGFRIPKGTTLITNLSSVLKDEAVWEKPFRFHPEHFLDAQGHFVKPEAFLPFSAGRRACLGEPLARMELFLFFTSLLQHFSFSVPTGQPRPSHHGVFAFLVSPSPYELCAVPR
The target of the next assay is T2, Cytochrome P450 1A2 (Homo sapiens, UniProt P05177).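 Also: PubChem cytochrome P450 panel assay, CYP1A2 panel member.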
T2 sequence (P05177 whole entry): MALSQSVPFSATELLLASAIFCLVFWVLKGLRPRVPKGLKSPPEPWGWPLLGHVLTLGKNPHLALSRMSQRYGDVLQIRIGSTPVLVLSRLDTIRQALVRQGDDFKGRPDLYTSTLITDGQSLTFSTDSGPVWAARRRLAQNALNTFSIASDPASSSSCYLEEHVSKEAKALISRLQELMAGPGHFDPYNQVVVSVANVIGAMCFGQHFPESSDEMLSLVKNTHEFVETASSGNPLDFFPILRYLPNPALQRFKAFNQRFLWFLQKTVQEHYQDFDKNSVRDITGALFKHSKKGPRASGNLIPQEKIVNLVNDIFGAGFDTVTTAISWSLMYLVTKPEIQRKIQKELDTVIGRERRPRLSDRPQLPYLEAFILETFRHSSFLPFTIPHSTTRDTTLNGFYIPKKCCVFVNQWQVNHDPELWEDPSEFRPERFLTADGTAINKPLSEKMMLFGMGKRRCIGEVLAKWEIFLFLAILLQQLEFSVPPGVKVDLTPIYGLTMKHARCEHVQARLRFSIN

For assay [7], the target named is T3, Rac GTPase-activating protein 1 (Homo sapiens, UniProt Q9H0H5).
T3 sequence (Q9H0H5 whole entry): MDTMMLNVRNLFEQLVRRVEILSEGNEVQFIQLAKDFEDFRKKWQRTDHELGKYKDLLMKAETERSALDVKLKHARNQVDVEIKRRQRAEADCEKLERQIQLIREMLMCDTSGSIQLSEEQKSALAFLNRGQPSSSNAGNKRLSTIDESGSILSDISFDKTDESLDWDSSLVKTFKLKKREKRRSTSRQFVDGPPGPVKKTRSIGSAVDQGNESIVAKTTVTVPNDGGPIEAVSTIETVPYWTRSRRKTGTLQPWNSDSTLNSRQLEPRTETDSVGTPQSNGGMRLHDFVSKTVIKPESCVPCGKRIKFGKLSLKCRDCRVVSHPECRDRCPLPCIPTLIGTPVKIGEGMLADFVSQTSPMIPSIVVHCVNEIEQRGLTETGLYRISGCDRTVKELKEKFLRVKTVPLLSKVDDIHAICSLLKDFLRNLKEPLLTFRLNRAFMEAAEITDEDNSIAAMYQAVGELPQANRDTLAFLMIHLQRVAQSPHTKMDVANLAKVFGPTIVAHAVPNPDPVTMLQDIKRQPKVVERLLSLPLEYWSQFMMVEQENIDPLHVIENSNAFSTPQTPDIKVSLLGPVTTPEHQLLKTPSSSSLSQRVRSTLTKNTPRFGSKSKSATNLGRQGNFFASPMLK
Nature of the assay: MgcRacGAP GTPase-activating activity inhibitors, confirmation, biochemical, ADP Hunter fluorescence, primary and confirmatory (AID 624330). It is filed as functional.

For another assay, the system named is INS1. Kind of assay: beta cell apoptosis inhibitors, cytokine rescue, dose response, luminescence, retest (AID 449756).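 Also: cell death triggered by IL-1 beta plus TNF-alpha plus IFN-gamma mixture; protective hits raise ATP signal compared with cytokine alone wells.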 It is filed as functional, cell-based. The settings on record: Rattus norvegicus.
Assay [8] deals with Streptococcus sp. 'group A'. Nature of the assay: growth inhibition of control SK(-) GAS strain, dose response, counter-screen for streptokinase expression inhibitor project, luminescence, kanamycin, BacTiterGlo, confirmation (AID 1900). Type of assay: functional, organism-based.
The subject of a further assay is Streptococcus. Kind of assay: Group A Streptococcus viability loss, dose response, counter-screen for streptokinase expression inhibitor project, luminescence, BacTiterGlo (AID 1915).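 Also: potency for reduction of bacterial viability or growth.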 It is filed as functional, organism-based.
The nature of assay [9]: Luminescence Cell-Based Dose Retest to Confirm Inhibitors of Cancer Stem Cells. [Related pubchem assays (depositor defined):AID2717, AID2721]. It is filed as functional. The settings on record: Homo sapiens.

FAD-linked sulfhydryl oxidase ALR, sequence (P55789 whole entry): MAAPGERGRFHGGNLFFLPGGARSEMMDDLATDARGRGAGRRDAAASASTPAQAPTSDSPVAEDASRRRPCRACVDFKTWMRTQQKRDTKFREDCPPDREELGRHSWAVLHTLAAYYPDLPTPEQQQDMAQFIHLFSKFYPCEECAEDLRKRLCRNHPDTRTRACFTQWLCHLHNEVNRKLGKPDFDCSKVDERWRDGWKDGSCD

For the compound `O=C(CCc1ccccc1)Nc1ccc(Cl)cn1`, the EC50 in assay [1] was > 120 µM (not active); in assay [2], 1.18 µM (active); with H4, 19.8 µM (active).

As for `Oc1ccccc1CNc1cnc2ccccc2c1`, the half-maximal activity concentration (AC50) in assay [3] is 37.9 µM (active).

Take `COc1ccc(-c2cc(C#N)nc(N3CCN(C)CC3)n2)cc1`: the EC50 in assay [4] was 1.95 µM (active); in assay [5], > 30 µM (not active).

As for `CCCCOc1ccc(-c2nnn(CC(=O)NCc3ccco3)n2)cc1`, the EC50 in [1] was > 120 µM (not active); in [2], 24.3 µM (active); in the assay on H4, 10 µM (active).

Regarding `COc1ccc(C2=C/C(=C\c3ccccc3OC(C)=O)C(=O)O2)cc1`, the EC50 in assay [1] is 18.6 µM (active); in [2], 90 µM (active); in the assay with H4, 48.4 µM (active).

Consider `CN(Cc1nc(-c2ccccn2)no1)S(=O)(=O)c1ccc(Cl)cc1`, for which the EC50 in assay [6] was > 53 µM (inactive).

Consider `COCCn1c(C2CCCCC2)nc2sc3ccccc3c(=O)c2c1=O`, for which the EC50 in assay [4] was 2.28 µM (active); in assay [5] it was > 60 µM (not active).

With `O=C(Nc1nc2ccccc2n1Cc1ccccc1)c1ccc(COc2ccccc2[N+](=O)[O-])o1`, the values for the EC50 in [4] and in assay [5] were 1.25 µM (active) and > 60 µM (inconclusive), respectively. The AC50 at Cytochrome P450 2D6 is 17.8 µM (inconclusive); on Cytochrome P450 1A2 it was 1.78 µM (inconclusive).

For the compound `Cn1nnnc1SC1CC(=O)N(c2ccccc2)C1=O` (configuration not stated), the EC50 in assay [4] is 3.7 µM (active); in [5], 7.1 µM (active).

For the compound `CC1CCCCC12NC(=O)N(CC(=O)NC(=O)Nc1ccc3c(c1)OCCO3)C2=O` (configuration not stated), the values for the EC50 (in [1]; in assay [2]; with H4) were 0.111 µM (active), 0.483 µM (active) and 0.117 µM (active), respectively.

On to `O=C(Nc1ccc(O)cc1)c1cc(S(=O)(=O)N2CCCC2)ccc1Cl`, for which the concentration at half-maximal activity (AC50) in assay [3] was 2.49 µM (active).

Regarding `O=C(c1cc(-c2ccc3c(c2)OCO3)on1)N1CCN(c2ccccc2)CC1`, the figures for the EC50 (in [1]; in assay [2]; in the assay on H4) were 0.793 µM (active), 0.817 µM (active) and 4.67 µM (active), respectively.

Consider `Cc1cc(C)c(S(=O)(=O)Nc2ccc(O)cc2)c(C)c1`, for which the concentration at half-maximal activity (AC50) in [3] was 0.694 µM (active). In addition, in assay [7], the IC50 is 69.7 µM (active).

In the case of `S=C(NCCN1CCOCC1)Nc1ccc(-c2nc3ccccc3[nH]2)cc1`, the EC50 in assay [1] was 16.3 µM (active); in [2], 10.7 µM (active); with H4 it was 16.5 µM (active).

Regarding `Cc1ccc(Cl)cc1N1CCN(Cc2cc3c(cc2O)CCC3)CC1`, the EC50 in [4] is 2.65 µM (active); in assay [5] it was > 60 µM (not active).

On to `Nc1cc(O)nc(SCc2csc(-c3ccccc3)n2)n1`, for which the AC50 in [3] is 5.71 µM (active).

Turning to `CC1CCc2c(nc3ncnn3c2NCCc2ccccc2F)C1` (configuration not stated), the EC50 (in assay [1]; in assay [2]; in the assay with H4) was > 120 µM (not active) in each case.

For `Nc1n[nH]c(Nc2ccccc2)n1`, the AC50 in [3] was 1.79 µM (active).

`CCC(CC)C(=O)c1c[nH]c(C(=O)NCc2ccccn2)c1`: in the assay with INS1, the AC50 is > 260 µM (inactive).

For `COc1ccc2c(c1)NC(C)(C)C=C2C`, the EC50 in assay [4] is 2.71 µM (active); in assay [5], > 60 µM (not active).

Take `CN1C(=O)C(=C/C=C/Nc2ccccc2)C(=O)N(C)C1=O`: the EC50 in assay [6] is > 53 µM (inactive).

Consider `CCn1c(=N)n(CC(=O)C23CC4CC(CC(C4)C2)C3)c2ccccc21`, for which the results for the EC50 in assay [4] and in [5] were 0.223 µM (active) and > 60 µM (not active), respectively.

Regarding `COc1ccccc1N1CCN(CCc2nnc(S)n2-c2ccccc2)CC1`, the AC50 in assay [3] was 2.88 µM (active).

In the case of `COc1ccc(C2CC(c3ccccc3)=NN2C(=O)COC(=O)c2nc3nc(C)cc(C)n3n2)cc1` (configuration not stated), the EC50 in assay [4] is 3.19 µM (active); in assay [5] it was > 60 µM (not active).

As for `Clc1cccc(Cl)c1/C=C/c1cc[nH]n1`, the EC50 is > 120 µM (not active) in assay [1], 41.2 µM (active) in assay [2] and 27 µM (active) in the assay on H4.

On to `Cc1ccc(/C=C2\C(=O)NC(=O)N(Cc3ccccc3Cl)C2=O)o1`, for which the AC50 in assay [3] is 0.494 µM (active).

`CCOC(=O)c1c(NC(=O)C[n+]2ccc(N(C)C)cc2)sc(C)c1C`: the EC50 in assay [4] is 1.44 µM (active); in assay [5] it was > 60 µM (not active).

`c1ccc(NC2=Nc3ccccc3CC2)cc1`: the results for the EC50 (in assay [1]; in assay [2]; in the assay on H4) were 10.9 µM (active), 21.1 µM (active) and > 120 µM (not active), respectively.

For `CC(c1nnc(S)n1-c1ccc(F)cc1)N1CCCCC1` (configuration not stated), the AC50 in assay [3] was 5.03 µM (active).

As to `CN1/C(=C\C(=O)c2ccco2)C(C)(C)c2ccccc21`, the AC50 in the assay with INS1 was 6.55 µM (active).

Turning to `Cc1ccc(-c2nc3ncccc3o2)cc1NC(=O)c1ccc([N+](=O)[O-])o1`, the EC50 (in [1]; in [2]; in the assay on H4) was > 120 µM (not active) each time.

As to `CNC(=S)N/N=C/c1ccc(N2CCOCC2)s1`, the EC50 in [4] and in [5] was > 60 µM (not active) throughout. For the same compound, in assay [7], the IC50 is 28.3 µM (active).

For `CCN(CC)c1ccc(/C=N/NC(=O)CCC(=O)NCc2ccccc2)c(O)c1`, the EC50 is 3.22 µM (active) in [8] and 4.53 µM (active) in the assay with Streptococcus. Also, the AC50 in assay [9] was 5.66 µM (active); in the assay on INS1, 1.7 µM (active).

As for `Nc1ccc(Cl)cc1/C(=N/O)c1ccccc1`, the AC50 in assay [3] is 22.8 µM (active).

For `CC(=N\Nc1ccccc1)/C(=N/O)C(=O)Nc1ccccc1`, in [3], the AC50 is 2.49 µM (active).
